This is an account of results in PubChem BioAssay (NCI).

The structures appear in SMILES notation.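 In this assay, cells in 96-well plates receive the compound at five concentrations for 48 hours. Endpoints are linearly interpolated between the surrounding concentrations. Here, GI50 denotes the concentration required for 50% inhibition of growth. Definition used: TGI = concentration required for complete inhibition of growth.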

Holding throughout (test): NCI tumour cell line growth inhibition, 48 h
In assay [1] the test system is A549 NSCLC.
Assay [2] deals with HCT-15 colon.
Assay [3] relates to HL-60(TB) leukemia.
Assay [4] concerns K-562 leukemia.
For assay [5], the system named is MDA-MB-435.
Assay [6] concerns OVCAR-5 ovarian.
In assay [7] the test system is PC-3 prostate.
Assay [8] relates to SF-539 CNS.
The test system of assay [9] is SW-620 colon.
The subject of assay [10] is T-47D breast.

Take `O=C(Nc1ccc(Oc2ccc(F)cc2)cc1)[C@@H]1C[C@@H](Cc2ccc(F)cc2)CN1C(=O)Cn1ccnn1`: the GI50 in [1] was 5.21 µM; in assay [2], 5.04 µM; in assay [3] it was 3.7 µM; in [4], 5.61 µM; in assay [5], 7.16 µM; in [6], 4.52 µM. The GI50 in assay [7] was 4.42 µM; in assay [8] it was 10.6 µM; in assay [9] it was 12.6 µM; in [10], 4.32 µM. The TGI in assay [1] was greater than 50.4 µM; in [2] it was 23.1 µM; in [3], 17.8 µM; in assay [4], greater than 65 µM; in [5], 23.7 µM; in assay [6], 17.7 µM. Besides, the TGI was greater than 37.8 µM in assay [7], 26.6 µM in assay [8], 40 µM in assay [9] and 36.5 µM in assay [10].
Consider `COc1cc2cc(Oc3ccc(NC(=O)Nc4cc(C(F)(F)F)cc(C(F)(F)F)c4)cc3)c(C)nc2cc1OCCN1CCOCC1`, for which the GI50 in [1] was 1.72 µM; in [2], 1.1 µM; in assay [3] it was 1.62 µM; in assay [4], 1.41 µM; in assay [5], 1.9 µM; in [6], 2.18 µM. Also, the GI50 in assay [7] is 1.18 µM; in assay [8], 1.54 µM; in assay [9], 1.72 µM; in assay [10] it was 2.04 µM. Further, the TGI in assay [1] came out at 7.23 µM; in assay [2], 2.77 µM; in assay [3], 4.93 µM; in assay [4], 5.5 µM; in assay [5], 6.72 µM; in assay [6], 7.97 µM. Besides, the TGI came out at 5.16 µM in assay [7], 5.25 µM in assay [8], 7.17 µM in assay [9] and 10.2 µM in assay [10].
With `C#Cc1cccc(Nc2ncnc3cc(NC(=O)CCl)ccc23)c1`, the GI50 in [1] is 3.59 µM; in assay [2], 0.743 µM; in [3], 4.45 µM; in assay [4], 0.802 µM; in [5], 1.27 µM; in [6] it was 1.12 µM. Further, the GI50 in assay [7] was 3.69 µM; in assay [8], 3.48 µM; in assay [9], 0.832 µM; in assay [10] it was 2.43 µM. For the same molecule, the TGI in assay [1] was determined as 7.93 µM; in [2], 3.42 µM; in [3], 11.3 µM; in assay [4] it was 25 µM; in [5], 5.17 µM; in assay [6], 5.63 µM. Besides, the TGI in assay [7] came to 8.33 µM; in [8] it was 6.82 µM; in assay [9], 3.08 µM; in [10], 5.93 µM.
Consider `CCCCN(CCCC)C(=O)[C@H](CC)[C@@H]1CC[C@@H](C)[C@@H]([C@H](C)[C@@H](O)[C@@H](C)C(=O)[C@H](CC)C2O[C@]3(C=C[C@@H](O)[C@]4(CC[C@@](C)([C@H]5CC[C@](O)(CC)[C@H](C)O5)O4)O3)[C@H](C)C[C@@H]2C)O1` (stereo not given in full), for which the GI50 in [1] is 3.12 µM; in [2] it was 2.31 µM; in assay [3], 2.35 µM; in assay [4], 2.66 µM; in assay [5] it was 2.92 µM; in [6], 1.9 µM. Moreover, the GI50 in assay [7] was 2.05 µM; in assay [8], 1.88 µM; in [9], 2.75 µM; in assay [10], 2.34 µM. The TGI in assay [1] was determined as 34.4 µM; in [2], 6.12 µM; in assay [3], 5.7 µM; in assay [4], 18.4 µM; in assay [5], 10.1 µM; in assay [6], 4.78 µM. Further, the TGI in [7] was 16.8 µM; in [8], 4.2 µM; in assay [9], 11.1 µM; in assay [10] it was 63.8 µM.
On to `O=C(CS(=O)(=O)c1nc2ccccc2nc1-c1ccccc1)Nc1ccc(F)cc1`, for which the GI50 was greater than 100 µM in assay [1]; 39.9 µM in [2]; 1.8 µM in assay [3]; 3.83 µM in assay [4]; 88 µM in assay [5]; greater than 100 µM in [6]. The GI50 in assay [7] was 26 µM; in assay [8], 18.7 µM; in assay [9], 46.6 µM; in [10], 56.6 µM. Further, the TGI is greater than 100 µM in [1]; greater than 100 µM in [2]; 10.3 µM in assay [3]; 16.6 µM in assay [4]; greater than 100 µM in assay [5]; greater than 100 µM in assay [6]. The TGI in assay [7] was greater than 100 µM; in [8], 60.2 µM; in [9] it was greater than 100 µM; in [10] it was greater than 100 µM.
Consider `N#CCn1c(=O)c(Oc2ccc(F)cc2F)cc2cnc(NC3CCOCC3)nc21`, for which the GI50 in assay [1], in [2], in assay [3], in [4], in assay [5] and in assay [6] was greater than 25 µM throughout. In addition, the GI50 in assay [7] is greater than 25 µM; in assay [8], greater than 25 µM; in [9], greater than 25 µM; in assay [10] it was 12.3 µM. Also, the TGI in assay [1], in assay [2], in assay [3], in [4], in assay [5] and in assay [6] was greater than 25 µM throughout. Besides, the TGI in [7], in assay [8], in assay [9] and in [10] was greater than 25 µM throughout.
For the molecule `COc1cc(CNCCCCCCN2C(=O)c3cccc4cccc(c34)C2=O)ccc1O`, the GI50 is 5.56 µM in [1]; 10.4 µM in assay [2]; 3.33 µM in assay [3]; 2.91 µM in assay [4]; 3.89 µM in assay [5]; 14.1 µM in assay [6]. Moreover, the GI50 in [7] was 4.42 µM; in assay [8], 1.82 µM; in [9], 4.1 µM; in [10], 2.93 µM. Further, the TGI in assay [1] was found to be 19.4 µM; in assay [2] it was 29.6 µM; in assay [3], 24.3 µM; in assay [4], 11 µM; in assay [5], 15.9 µM; in assay [6], 29 µM. Besides, the TGI in assay [7] turned out to be 18.7 µM; in [8], 3.83 µM; in [9] it was 17.2 µM; in assay [10] it was 14.3 µM.
In the case of `O=C1NC(=NCc2ccccc2Cl)S/C1=C\c1ccc2ncccc2c1`, the GI50 was 8.5 µM in assay [1]; 4.33 µM in [2]; 10.1 µM in assay [3]; 12.7 µM in assay [4]; 6.83 µM in assay [5]; greater than 25 µM in assay [6]. Further, the GI50 was greater than 25 µM in assay [7], 3.59 µM in [8], 6.61 µM in assay [9] and greater than 25 µM in [10]. Moreover, the TGI in assay [1], in assay [2], in assay [3], in [4], in assay [5] and in assay [6] was greater than 25 µM throughout. For the same molecule, the TGI in assay [7], in [8], in assay [9] and in assay [10] was greater than 25 µM throughout.
Regarding `CC(=O)Nc1ccc(C(=O)CCl)cc1`, the GI50 in [1] was 18.9 µM; in [2], 2.39 µM; in assay [3], 2.4 µM; in [4] it was 2.48 µM; in assay [5], 4.74 µM; in assay [6], 12.2 µM. Further, the GI50 in assay [7] is 10 µM; in [8], 3.63 µM; in assay [9], 1.73 µM; in assay [10], 2.68 µM. The TGI in assay [1] was 39.2 µM; in assay [2], 7.6 µM; in assay [3], 5.86 µM; in assay [4] it was 5.88 µM; in assay [5] it was 16.6 µM; in assay [6], 26.1 µM. For the same molecule, the TGI was 22.3 µM in assay [7], 14.7 µM in assay [8], 3.38 µM in [9] and 7.33 µM in assay [10].
Take `CC(C)(C)c1cc(C(=O)Nc2ccccc2C(=O)NCCN)cc(C(C)(C)C)c1`: the GI50 in assay [1] is 2.11 µM; in assay [2] it was 1.89 µM; in assay [3], 2.15 µM; in [4], 2.23 µM; in assay [5] it was 1.72 µM; in assay [6] it was 1.78 µM. Also, the GI50 in [7] is 1.79 µM; in assay [8] it was 1.89 µM; in assay [9] it was 1.87 µM; in assay [10], 1.76 µM. In addition, the TGI in assay [1] came to 4.2 µM; in [2], 3.45 µM; in [3] it was 4.46 µM; in assay [4], 5.33 µM; in assay [5], 3.24 µM; in [6], 3.81 µM. Also, the TGI in [7] stood at 3.5 µM; in [8], 3.5 µM; in assay [9], 3.87 µM; in assay [10] it was 3.51 µM.
